This is an account of results in patent US6017890A, “Azole peptidomimetics as thrombin receptor antagonists” (Ortho-McNeil Pharmaceutical, Inc., priority 1999, dated 2000).

Usually IC50 stands for the concentration that inhibits the measured activity by half.

Assay [1] has as its target T1, gel-filtered platelets (SFLLRN-NH2 (TRAP)-stimulated aggregation) (Homo sapiens, UniProt P25116).
T1 sequence (P25116 42-425): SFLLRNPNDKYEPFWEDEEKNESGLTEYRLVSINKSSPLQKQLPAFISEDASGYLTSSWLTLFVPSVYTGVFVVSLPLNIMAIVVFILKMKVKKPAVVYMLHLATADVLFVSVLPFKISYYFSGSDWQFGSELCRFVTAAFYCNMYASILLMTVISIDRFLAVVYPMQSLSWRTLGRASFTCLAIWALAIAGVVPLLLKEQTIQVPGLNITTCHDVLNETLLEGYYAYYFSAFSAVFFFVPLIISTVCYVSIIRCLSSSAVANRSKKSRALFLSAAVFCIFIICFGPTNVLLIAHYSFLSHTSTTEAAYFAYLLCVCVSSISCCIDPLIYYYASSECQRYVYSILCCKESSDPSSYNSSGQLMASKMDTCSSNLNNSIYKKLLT
The assay can be described thus: In vitro inhibition of SFLLRN-NH2 (TRAP)-induced gel-filtered platelet aggregation. It counts as cell-based. As to conditions: agonist SFLLRN-NH2 (TRAP). The procedure:
The percentage of platelet aggregation is calculated as an increase in light transmission of compound-treated platelet concentrate vs. control-treated platelet concentrate. Human blood is obtained from drug free, normal donors in tubes containing 0.13 M sodium citrate. Platelet rich plasma (PRP) is collected by centrifugation of whole blood at 200×g for 10 min at 25° C. The PRP (5 mL) is gel filtered through Sepharose 2B (bed volume 50 mL), and the platelet count is adjusted to 2×10^7 platelets per sample. The following constituents are added to a siliconized cuvette: concentrated platelet filtrate and Tyrode's buffer (0.14 M NaCl, 0.0027 M KCl, 0.012 M NaHCO3, 0.76 mM Na2 HPO4, 0.0055 M glucose, 2 mg/mL BSA and 5.0 mM HEPES@pH 7.4) in an amount equal to 350 μl, 50 μl of 20 mM calcium and 50 μl of the test compound. Aggregation is monitored in a BIODATA aggregometer for the 3 min following the addition of agonist (thrombin 50 μl of 1 unit/mL).
(§1) The table contains IC50 values (μM) of the compounds in a thrombin receptor binding assay, and IC50 values (μM) against platelet aggregation stimulated by two agonists, thrombin or SFLLRN-NH2 [SEQ. ID. NO:1] (TRAP).

The next assay has as its target T2, thrombin receptor (Homo sapiens, UniProt P25116).
T2 construct: CHRF membranes (Jones, Biochim. Biophys. Acta 1992, 1136, 272) are thawed from -70° C; endogenous in cells; host or cells: CHRF cell membranes
T2 sequence (P25116 22-425): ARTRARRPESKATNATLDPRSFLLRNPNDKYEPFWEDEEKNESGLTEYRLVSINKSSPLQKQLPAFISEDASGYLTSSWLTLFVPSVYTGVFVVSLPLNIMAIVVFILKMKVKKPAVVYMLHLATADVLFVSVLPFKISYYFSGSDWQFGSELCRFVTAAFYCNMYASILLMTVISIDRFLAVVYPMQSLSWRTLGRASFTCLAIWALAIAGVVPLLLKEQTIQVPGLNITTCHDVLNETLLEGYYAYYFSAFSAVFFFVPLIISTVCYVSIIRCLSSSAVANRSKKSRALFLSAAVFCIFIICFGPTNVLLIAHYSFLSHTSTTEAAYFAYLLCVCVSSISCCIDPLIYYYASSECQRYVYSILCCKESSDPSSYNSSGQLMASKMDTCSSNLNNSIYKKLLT
The assay can be described thus: In vitro thrombin receptor binding assay (displacement of tritiated 721-40 from CHRF membranes). As to conditions: tritiated 721-40 (Ser-pFPhe-Har-Leu-Har-Lys-Tyr-NH2) radioligand, read-out: Thr Receptor Binding IC50. The procedure: CHRF membranes (Jones, Biochim. Biophys. Acta 1992, 1136, 272) are thawed from -70° C., centrifuged at maximum speed for 5 min, washed twice with binding buffer (50 mM HEPES containing 5 mM MgCl2 and 0.1% BSA), and re-suspended in binding buffer ([…]). 100 μl of membranes are added to the 24-Wallac plates and delivered to the Tomtech apparatus. In a typical experiment, 6 μl of samples (from a 125 μg/mL intermediary plate, 20% DMSO) and 44 μl buffer are delivered to the plates (final conc. of compounds is 3.7 μg/mL, 0.6% DMSO). Similarly, 6 μl 20% DMSO and 44 μl buffer are delivered to both column 1 (NSB) and column 12 (TB). 10 μl Ser-pFPhe-Har-Leu-Har-Lys-Tyr-NH2 [SEQ. ID. NO:2] (721-40; 500 μM in deionized water) is added to column 1. 50 μl tritiated 721-40 (specific activity 46 Ci/mmol) is added to all the wells. The plates are mixed well for 20 seconds, incubated for 30 min, and then harvested with 10 mM HEPES/138 mM NaCl using the Skatron harvester. The filters (GF/C Brandel FPXLR 296) are presoaked 3 h in 0.5% polyethylenimine in HEPES/0.1 M N-acetylglucosamine) are set in saran wrap and dried for 3 min in the microwave, and placed in sample bags (Wallac 1450-432). 4.5 mL scintillation fluid (Wallac, Betaplate Scint 1205-440) is added. The bags are sealed, placed in filter cassettes (Wallac 1450-104), and analyzed on the microbeta counter.
as §1

Starred links: 1 amine or outer side, 2 acyl side, 3 side chain; linkers in the order of their positions; H or OH if unused. Non-standard residues stand in square brackets, D forms with d. Residues, ends and D or L forms follow the SMILES beside them. Phe(4-F)ψ(2,4-Thz) = O=C(c1csc([C@H](Cc2ccc(F)cc2)N[*:1])n1)[*:2]; Cha = N[C@@H](CC1CCCCC1)C(=O)O

With `CNCC(=O)N[C@@H](Cc1ccc(F)cc1)c1nc(C(=O)N[C@@H](CC2CCCCC2)C(=O)N[C@@H](CCCN=C(N)N)C(=O)NCc2ccccc2)co1` [Compound 1, 2-[1(S)-Sarcosineamido-2-(4-fluorophenyl)ethyl]oxazole-4-carboxy-cyclohexylalanyl-arginine benzylamide], the IC50 is 10 µM in assay [1] and 2 µM on thrombin receptor.
`N=C(N)NCCC[C@H](NC(=O)[C@H](CC1CCCCC1)NC(=O)c1coc([C@H](Cc2ccc(F)cc2)NC(=O)CCN)n1)C(=O)NCc1ccccc1` [Compound 2, 2-[1(S)-β-Alanineamido-2-(4-fluorophenyl)ethyl]oxazole-4-carboxy-cyclohexylalanyl-arginine benzylamide]: the figures for the IC50 (in assay [1]; at thrombin receptor) were 7 µM and 8.2 µM, respectively.
In the case of `CNCC(=O)N[C@@H](Cc1ccc(F)cc1)c1nc(C(=O)N[C@@H](CC2CCCCC2)C(=O)N[C@@H](CCCN=C(N)N)C(=O)NCCc2ccccc2)cs1` [Compound 3, 2-[1(S)-Sarcosineamido-2-(4-fluorophenyl)ethyl]thiazole-4-carboxy-cyclohexylalanyl-arginine phenethylamide], the IC50 was determined as 0.6 µM in assay [1] and 35 µM at thrombin receptor.
For `CC[C@H](C)[C@H](N)C(=O)N[C@@H](Cc1ccc(F)cc1)c1nc(C(=O)N[C@@H](CC2CCCCC2)C(=O)N[C@@H](CCCN=C(N)N)C(=O)N[C@@H](Cc2ccccc2)C(N)=O)cs1` [Compound 5, 2-[1(S)-Isoleucineamido-2-(4-fluorophenyl)ethyl]thiazole-4-carboxy-cyclohexylalanyl-arginyl-phenylalanineamide] (H-I[Phe(4-F)ψ(2,4-Thz)][Cha]RF-NH2) the same measures were 9 µM and 3.5 µM.
On to `CNCC(=O)N[C@@H](Cc1ccc(F)cc1)c1nc(C(=O)N[C@@H](CCCCN)C(=O)N[C@@H](CCCNC(=N)N)C(=O)NCCc2ccccc2)cs1` [Compound 6, 2-[1(S)-Sarcosineamido-2-(4-fluorophenyl)ethyl]thiazole-4-carboxy-lysyl-arginine phenethylamide], for which the IC50 in assay [1] turned out to be 4 µM; on thrombin receptor, 15.5 µM.
`CNCC(=O)N[C@@H](Cc1ccc(F)cc1)c1nc(C(=O)N[C@@H](CC2CCCCC2)C(=O)N[C@@H](CCCNC(=N)N)C(=O)NCc2ccccc2)c(C)o1` [Compound 7, 2-[1(S)-Sarcosineamido-2-(4-fluorophenyl)ethyl]-5-methyloxazole-4-carboxy-cyclohexylalanyl-arginine benzylamide]: the IC50 in assay [1] came to 22 µM; on thrombin receptor, 7 µM.
In the case of `Cc1oc([C@H](Cc2ccc(F)cc2)NC(=O)[C@@H](N)Cc2cn(Cc3ccccc3)cn2)nc1C(=O)N[C@@H](CC1CCCCC1)C(=O)N[C@@H](CCCNC(=N)N)C(=O)NCc1ccccc1` [Compound 8, 2-[1(S)-N(tau)-Benzyl-histidineamido-2-(4-fluorophenyl)ethyl]-5-methyloxazole-4-carboxy-cyclohexylalanyl-arginine benzylamide], the IC50 in assay [1] was 5 µM; at thrombin receptor it was 30 µM.
In the same order, the values of `CC(=O)N[C@@H](Cc1ccc(F)cc1)c1nc(C(=O)N[C@@H](CC2CCCCC2)C(=O)N[C@@H](CCCNC(=N)N)C(=O)NCc2ccccc2)c(C)o1` [Compound 9, 2-[1(S)-Acetamido-2-(4-fluorophenyl)ethyl]-5-methyloxazole-4-carboxy-cyclohexylalanyl-arginine benzylamide] are 11 µM and 31 µM.
`Cc1oc([C@H](Cc2ccc(F)cc2)N(C)C)nc1C(=O)N[C@@H](CC1CCCCC1)C(=O)N[C@@H](CCCNC(=N)N)C(=O)NCc1ccccc1` [Compound 10, 2-[1(S)-N,N-Dimethyl-2-(4-fluorophenyl)ethyl]-5-methyloxazole-4-carboxy-cyclohexylalanyl-arginine benzylamide] had an IC50 in assay [1] of 17 µM.
